The source of these data is ChEMBL document CHEMBL2331222, “Discovery of novel inhibitors of signal transducer and activator of transcription 3 (STAT3) signaling pathway by virtual screening” (Eur J Med Chem, 2013).

Each structure is given as a SMILES string. The source made the active and inactive calls. No cut-off for these calls is given here.

Experiment [1] deals with MDA-MB-468. Put plainly: Cytotoxicity against human MDA-MB-468 cells harboring constitutively harboring activated STAT3 assessed as inhibition of cell viability at 10 uM after 72 hrs by MTT assay. It counts as functional. The note with it: MDA-MB-468, 72 h.
In experiment [2] the target is T1, Signal transducer and activator of transcription 3 (Homo sapiens, UniProt P40763). Put plainly: Inhibition of STAT3 in IL-6-stimulated human HepG2 cells at 10 uM treated for 1 hr prior to IL-6 challenge measured after 5.5 hrs by luciferase reporter gene assay. It counts as cell-based.
The target in experiment [3] is Tyrosine-protein kinase JAK2 (Homo sapiens) (UniProt O60674). Nature of the experiment: Effect on JAK2 phosphorylation in IL-6 stimulated human HepG2 cells at 50 uM treated for 6 hrs before IL-6 stimulation measured after 15 mins by Western blot analysis. It counts as cell-based. For orientation: In western blotting, separated proteins are transferred to a membrane and probed.

For experiment [4], the system named is HepG2. Put plainly: Effect on JAK2 level in IL-6 stimulated human HepG2 cells at 50 uM treated for 6 hrs before IL-6 stimulation measured after 15 mins by Western blot analysis. It counts as functional, cell-based.
Experiment [5] concerns HepG2. Nature of the experiment: Effect on STAT3 level in IL-6 stimulated human HepG2 cells at 50 uM treated for 6 hrs before IL-6 stimulation measured after 15 mins by Western blot analysis. The experiment is classed as functional, cell-based.
The target in experiment [6] is T1, Signal transducer and activator of transcription 3. Put plainly: Inhibition of STAT3 phosphorylation at Tyr705 in IL-6 stimulated human HepG2 cells at 50 uM treated for 6 hrs before IL-6 stimulation measured after 15 mins by Western blot analysis. The experiment is classed as cell-based.
Experiment [7] concerns MDA-MB-468. Put plainly: Cytotoxicity against human MDA-MB-468 cells harboring constitutively harboring activated STAT3 assessed as inhibition of cell viability after 72 hrs by MTT assay. It counts as functional, cell-based. The conditions noted are these: MDA-MB-468, 72 h. A general note: Tetrazolium assays rely on reduction of a dye to a coloured formazan, in cell work by metabolically active cells.

For experiment [8], the target named is T2, Signal transducer and activator of transcription 1-alpha/beta (Homo sapiens) (UniProt P42224).
T2 sequence (whole entry): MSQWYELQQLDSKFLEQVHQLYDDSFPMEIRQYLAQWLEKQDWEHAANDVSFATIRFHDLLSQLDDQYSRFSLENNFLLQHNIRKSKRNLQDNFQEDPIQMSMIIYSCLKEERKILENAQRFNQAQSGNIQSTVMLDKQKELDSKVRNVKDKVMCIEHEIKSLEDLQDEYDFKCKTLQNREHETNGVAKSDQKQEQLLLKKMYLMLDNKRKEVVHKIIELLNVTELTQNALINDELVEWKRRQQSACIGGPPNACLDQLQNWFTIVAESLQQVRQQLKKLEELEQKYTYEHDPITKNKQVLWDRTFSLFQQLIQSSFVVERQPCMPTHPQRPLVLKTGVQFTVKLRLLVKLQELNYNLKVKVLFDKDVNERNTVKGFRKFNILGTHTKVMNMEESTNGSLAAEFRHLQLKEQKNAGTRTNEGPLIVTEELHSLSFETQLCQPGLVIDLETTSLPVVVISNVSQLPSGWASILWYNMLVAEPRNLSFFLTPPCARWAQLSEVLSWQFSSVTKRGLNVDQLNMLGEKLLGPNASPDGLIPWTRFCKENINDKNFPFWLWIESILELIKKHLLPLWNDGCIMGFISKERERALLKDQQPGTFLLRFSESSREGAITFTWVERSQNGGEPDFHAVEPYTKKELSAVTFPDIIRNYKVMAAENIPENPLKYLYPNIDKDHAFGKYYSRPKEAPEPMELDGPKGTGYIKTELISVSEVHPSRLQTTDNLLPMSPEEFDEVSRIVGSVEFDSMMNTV
Put plainly: Inhibition of IFN-gamma-stimulated STAT1 (unknown origin) activity at 10 uM.

The target of experiment [9] is T1, Signal transducer and activator of transcription 3. Put plainly: Inhibition of STAT3 phosphorylation at Tyr705 in IL-6 stimulated human HepG2 cells treated for 6 hrs before IL-6 stimulation measured after 15 mins by Western blot analysis. The experiment is classed as cell-based.
Experiment [10] shares this target. Put plainly: Inhibition of STAT3 in IL-6-stimulated human HepG2 cells treated for 1 hr prior to IL-6 challenge measured after 5.5 hrs by luciferase reporter gene assay. It counts as cell-based. On the technique in general: Reporter assays use an easily measured gene product as a stand-in for the process of interest.
For a further experiment, the species on record is Homo sapiens. Nature of the experiment: Inhibition of TNF-alpha-stimulated NF-kappaB (unknown origin) activity at 10 uM.

T1 sequence (P40763 whole entry): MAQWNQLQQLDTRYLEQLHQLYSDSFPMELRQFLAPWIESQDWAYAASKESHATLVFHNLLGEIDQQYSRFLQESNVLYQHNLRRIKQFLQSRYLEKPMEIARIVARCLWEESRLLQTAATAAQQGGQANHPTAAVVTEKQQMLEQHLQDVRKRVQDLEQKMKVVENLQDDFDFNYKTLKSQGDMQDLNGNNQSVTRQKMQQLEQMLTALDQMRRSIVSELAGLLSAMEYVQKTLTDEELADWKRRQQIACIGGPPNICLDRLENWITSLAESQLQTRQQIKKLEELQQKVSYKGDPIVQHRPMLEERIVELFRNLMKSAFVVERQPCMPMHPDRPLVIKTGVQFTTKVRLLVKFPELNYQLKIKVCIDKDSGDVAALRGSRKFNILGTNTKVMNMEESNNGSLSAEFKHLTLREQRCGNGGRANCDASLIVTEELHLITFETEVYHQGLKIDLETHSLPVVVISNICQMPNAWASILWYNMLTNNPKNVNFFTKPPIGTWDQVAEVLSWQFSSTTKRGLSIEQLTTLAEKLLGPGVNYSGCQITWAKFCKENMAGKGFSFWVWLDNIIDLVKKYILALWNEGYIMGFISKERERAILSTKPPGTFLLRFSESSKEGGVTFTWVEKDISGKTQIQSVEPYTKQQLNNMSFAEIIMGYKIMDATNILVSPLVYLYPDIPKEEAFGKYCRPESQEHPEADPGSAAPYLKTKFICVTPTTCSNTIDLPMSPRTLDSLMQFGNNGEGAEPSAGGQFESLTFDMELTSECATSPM
Sequence of Tyrosine-protein kinase JAK2 (Homo sapiens) (O60674 whole entry): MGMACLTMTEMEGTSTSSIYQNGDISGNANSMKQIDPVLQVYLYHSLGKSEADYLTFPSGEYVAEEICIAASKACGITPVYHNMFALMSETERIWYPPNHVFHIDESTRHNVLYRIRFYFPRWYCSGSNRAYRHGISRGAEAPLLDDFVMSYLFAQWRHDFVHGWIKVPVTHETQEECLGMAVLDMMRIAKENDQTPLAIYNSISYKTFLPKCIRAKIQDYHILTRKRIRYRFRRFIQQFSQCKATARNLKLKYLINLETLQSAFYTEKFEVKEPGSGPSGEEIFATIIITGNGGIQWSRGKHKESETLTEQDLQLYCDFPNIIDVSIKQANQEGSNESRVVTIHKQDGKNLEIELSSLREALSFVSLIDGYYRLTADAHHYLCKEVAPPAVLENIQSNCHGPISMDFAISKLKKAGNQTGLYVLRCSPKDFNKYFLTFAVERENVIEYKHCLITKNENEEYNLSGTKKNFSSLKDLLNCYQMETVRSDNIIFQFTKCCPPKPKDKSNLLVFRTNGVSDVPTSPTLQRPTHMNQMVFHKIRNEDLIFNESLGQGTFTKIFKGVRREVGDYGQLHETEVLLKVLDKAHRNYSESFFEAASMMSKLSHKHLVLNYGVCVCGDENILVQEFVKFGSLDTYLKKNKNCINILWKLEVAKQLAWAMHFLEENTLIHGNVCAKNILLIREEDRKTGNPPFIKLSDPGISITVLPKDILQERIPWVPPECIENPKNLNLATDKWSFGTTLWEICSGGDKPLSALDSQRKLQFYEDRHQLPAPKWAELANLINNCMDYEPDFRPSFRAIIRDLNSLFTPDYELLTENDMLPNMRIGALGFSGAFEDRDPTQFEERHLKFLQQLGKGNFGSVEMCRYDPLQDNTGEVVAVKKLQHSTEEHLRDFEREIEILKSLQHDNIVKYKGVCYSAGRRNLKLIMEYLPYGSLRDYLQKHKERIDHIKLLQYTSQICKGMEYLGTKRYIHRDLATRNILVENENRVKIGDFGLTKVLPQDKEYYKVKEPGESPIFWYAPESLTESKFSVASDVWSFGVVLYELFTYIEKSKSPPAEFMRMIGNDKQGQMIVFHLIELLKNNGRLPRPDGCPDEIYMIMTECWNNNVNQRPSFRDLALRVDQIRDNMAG

As to `C[C@H](NC(=O)CSc1nc2ccc(NC(=O)c3ccc(OCc4ccccc4)cc3)cc2s1)c1ccccc1`, the inhibition at 10 µM with MDA-MB-468 [1] was 3.02%. For the same compound, the inhibition in [2] was 11.5%.
With `COc1ccc(C(=O)Nc2ccc3nc(SCC(=O)NCc4ccc(F)cc4)sc3c2)cc1`, the inhibition at 10 µM with MDA-MB-468 [1] was 5.48%.
Consider `CCc1cccc(CC)c1NC(=O)CSc1nc2ccc(NC(=O)c3cccnc3)cc2s1`, for which the inhibition at 10 µM with MDA-MB-468 [1] was determined as 8.23%. Also, the inhibition in experiment [2] was found to be 14.4%.
The matching figures for `CCCCCOc1ccc(C(=O)Nc2ccc3nc(SCC(=O)N[C@@H](C)c4ccccc4)sc3c2)cc1`: 61.1% and 30.7%.
The matching figures for `CCc1cccc(CC)c1NC(=O)CSc1nc2ccc(NC(=O)c3ccccc3OC)cc2s1`: 23.9% and 25.8%.
The corresponding values for `CCc1cccc(CC)c1NC(=O)CSc1nc2ccc(NC(=O)C(C)C)cc2s1` are -17.4% and -8.31%.
Consider `COc1ccc(C(=O)Nc2ccc3nc(SCC(=O)N[C@H](C)c4ccccc4)sc3c2)cc1`, for which the inhibition at 10 µM with MDA-MB-468 [1] is -56.8%. The inhibition in experiment [2] is -0.31%.
Take `COc1ccc(C(=O)Nc2ccc3nc(SCC(=O)Nc4ccc(F)c(Cl)c4)sc3c2)cc1`: the inhibition at 10 µM in the experiment with MDA-MB-468 [1] came to 2.47%.
With `COc1ccc(C(=O)Nc2ccc3nc(SCC(=O)Nc4c(C)cccc4C)sc3c2)cc1`, in the experiment on MDA-MB-468 [1], the inhibition at 10 µM is 5.01%. Besides, in experiment [2], the inhibition is -5.89%.
The corresponding values for `CCc1cccc(CC)c1NC(=O)CSc1nc2ccc(NC(=O)c3ccncc3)cc2s1` are 12.6% and 39.1%.
Take `CCCCOc1ccc(C(=O)Nc2ccc3nc(SCC(=O)N[C@@H](C)c4ccccc4)sc3c2)cc1`: in the experiment with MDA-MB-468 [1], the inhibition at 10 µM was found to be 57.2%. The inhibition in experiment [2] worked out at 30.9%.
In the case of `CCCCCOc1ccc(C(=O)Nc2ccc3nc(SCC(=O)Nc4c(CC)cccc4CC)sc3c2)cc1`, the inhibition at 10 µM in the experiment with MDA-MB-468 [1] turned out to be 24.1%. In addition, the inhibition in [2] was determined as 18.9%.
Take `CCCC(C)Oc1ccc(C(=O)Nc2ccc3nc(SCC(=O)Nc4c(CC)cccc4CC)sc3c2)cc1` (centres undefined): the inhibition at 10 µM in the experiment with MDA-MB-468 [1] was determined as 34.9%. Besides, the inhibition in experiment [2] came out at 25.8%.
The corresponding values for `CCc1cccc(CC)c1NC(=O)CSc1nc2ccc(NC(=O)C3CC3)cc2s1` are 32.4% and -9.23%.
Consider `CCCCOc1ccc(C(=O)Nc2ccc3nc(SC(C)C(=O)Nc4c(C)cc(C)cc4C)sc3c2)cc1` (centres undefined), for which, in experiment [2], the inhibition turned out to be 21.5%.
On to `CCc1cccc(CC)c1NC(=O)CSc1nc2ccc(NC(=O)c3ccc(OC)cc3)cc2s1`, for which the inhibition at 10 µM in the experiment on MDA-MB-468 [1] was -0.77%.
As for `COc1ccc(C(=O)Nc2ccc3nc(SCC(=O)N[C@@H](C)c4ccccc4)sc3c2)cc1`, in the experiment on MDA-MB-468 [1], the inhibition at 10 µM was -44.7%. Further, in [2], the inhibition turned out to be 43%.
Turning to `CCC(Sc1nc2ccc(NC(=O)c3ccc(OC)cc3)cc2s1)C(=O)Nc1ccc(Br)cc1` (centres undefined), the outcome (in experiment [3]; in the experiment with HepG2 [4]; with HepG2 [5]) was inactive. For the same compound, the inhibition result in [6] is “Active”. Moreover, the IC50 with MDA-MB-468 [7] was found to be 8.83 µM. In addition, the inhibition at 10 µM with MDA-MB-468 [1] is 66.4%. Besides, the inhibition was 6.17% in experiment [8] and 34.8% in [2].
For `CCc1cccc(CC)c1NC(=O)CSc1nc2ccc(NC(=O)Cc3ccccc3OC)cc2s1`, the inhibition at 10 µM in the experiment on MDA-MB-468 [1] was -12.3%.
Turning to `CCc1cccc(CC)c1NC(=O)CSc1nc2ccc(NC(=O)C(C)Cl)cc2s1` (centres undefined), the inhibition at 10 µM with MDA-MB-468 [1] is -4.54%. In addition, the inhibition in [2] was -7.98%.
Regarding `CCCCOc1ccc(C(=O)Nc2ccc3nc(SCC(=O)Nc4c(CC)cccc4CC)sc3c2)cc1`, in experiment [2], the inhibition worked out at 49.5%.
On the same count and under the same terms, to `COc1ccc(NCc2nnc(SCC(=O)Nc3cccc4ccccc34)n2-c2ccc(OC)cc2)cc1` belongs 24%.
With `COc1ccccc1C(=O)Nc1ccc2nc(SCC(=O)Nc3c(C)cccc3C)sc2c1`, in the experiment on MDA-MB-468 [1], the inhibition at 10 µM stood at 39%. Besides, the inhibition in experiment [2] came out at 21.5%.
Regarding `CCC(=O)Nc1ccc2nc(SCC(=O)Nc3c(CC)cccc3CC)sc2c1`, the inhibition at 10 µM with MDA-MB-468 [1] is -12%. In addition, the inhibition in experiment [2] was 2.36%.
For the compound `COc1cc(/C=C/C(=O)CC(=O)/C=C/c2ccc(O)c(OC)c2)ccc1O` [CURCUMIN], the figures for the inhibition entry in experiment [9] and in experiment [2] were “Dose-dependent effect” and 30.7%, respectively. The IC50 is 196 µM with MDA-MB-468 [7] and 19.2 µM in experiment [10]. Further, the inhibition at 10 µM with MDA-MB-468 [1] stood at 3.88%.
With `CCc1cccc(CC)c1NC(=O)CSc1nc2ccc(NC(=O)c3ccc(OCc4ccccc4)cc3)cc2s1`, the inhibition at 10 µM in the experiment on MDA-MB-468 [1] came to 44.6%. Further, the inhibition in experiment [2] turned out to be 22.6%.
Turning to `O=C(CSc1nc2ccc(NC(=O)c3ccccc3)cc2s1)Nc1ccc(F)c(Cl)c1`, the inhibition at 10 µM with MDA-MB-468 [1] turned out to be 9.04%.
As to `COc1ccc(C(=O)Nc2ccc3nc(SCC(=O)NCc4ccc([N+](=O)[O-])cc4)sc3c2)cc1`, the inhibition at 10 µM in the experiment with MDA-MB-468 [1] was -20.4%. The inhibition in [2] came out at 23.8%.
Consider `COc1ccc(C(=O)Nc2ccc(C(=O)OCC(=O)c3cccc([N+](=O)[O-])c3)cc2)cc1OC`, for which the figures for the inhibition (in the experiment filed under Homo sapiens; in experiment [8]; in experiment [2]) were -4.32%, 13.8% and 38.5%, respectively.
In the case of `CCCC(C)Oc1ccc(C(=O)Nc2ccc3nc(SCC(=O)N[C@@H](C)c4ccccc4)sc3c2)cc1` (some centres undefined), the result (in experiment [3]; in the experiment on HepG2 [4]; in the experiment with HepG2 [5]) was inactive. Besides, in experiment [6], the inhibition result was “Active”. The IC50 in the experiment on MDA-MB-468 [7] worked out at 16.1 µM. In addition, in the experiment on MDA-MB-468 [1], the inhibition at 10 µM stood at 51.4%. Also, the inhibition in [2] worked out at 51.1%.
As to `CCc1cccc(CC)c1NC(=O)CSc1nc2ccc(NC(=O)c3ccc([N+](=O)[O-])cc3)cc2s1`, the inhibition at 10 µM in the experiment on MDA-MB-468 [1] was 6.13%. In experiment [2], the inhibition is -5.71%.

Broadly, the inhibition is the change of the read-out against control, counted positive when it falls. By IC50 is commonly meant the concentration needed to halve the response being measured.
